Several values for one entry are separate records, joined by “and”; a condition that tells them apart may be missing. Equal values may be shown once. Entries after “also recorded” stand apart in the source; their conditions may differ. Read-outs that look alike come from different tables or passages of the source.
Key:
[1] = Permeability in Franz diffusion cell, polydimethylsiloxane-polycarbonate membrane; type: in vitro ADME; conditions: pH 7.4, 310.15 K
Protocol: (§1) Permeability coefficients were measured in a vertical type Franz diffusion cell (PermeGear, Inc., Hellertown, PA, USA) maintained at 37 °C, with an effective diffusion area of 0.785 cm^2. The volumes of the donor (lower) and the acceptor (upper) compartments were 7 mL and 2 mL, respectively. Three artificial membranes were used in the study: Regenerated cellulose (RC): Standard Grade RC Dialysis Membrane with a molecular weight cut-off (MWCO) of 12–14 kDa and a flat width of 45 mm; PermeaPad barrier (PP): A commercially available barrier (PHABIOC, Fritz-Souchon-Str. 27, 32339 Espelkamp, Germany; www.innome.de), originally proposed by di Cagno et al.; Polydimethylsiloxane-polycarbonate membrane (PDS): A “Carbosil” membrane composed of 55% polydimethylsiloxane and 45% polycarbonate (PENTAMED, Moscow, Russia; https://medpolymer.ru/).
(§2) A solution of HML in pH 7.4 (7 mL) was placed into the donor chamber of a Franz cell. The acceptor compartment was filled with pure buffer pH 7.4 (1 mL). Over a period of 5 h, 0.5 mL samples were withdrawn from the acceptor compartment at 30 min intervals and replaced with an equal volume of fresh pH 7.4 buffer. The sample concentrations were determined by UV-Vis spectroscopy (Cary-50, Varian, Palo Alto, CA, USA; Software Version 3.00 (339)) or by HPLC (for experiments involving the polydimethylsiloxane-polycarbonate membrane). The cumulative amount of drug permeated through the membrane was plotted as a function of time. The flux was determined from the slope of the linear portion of each curve. The permeability coefficient was calculated using the following equation:(4) Papp=J/C0 where J is the flux, and C0 is the concentration of HML in the donor solution. A reverse dialysis setup was employed, where the lower chamber served as the donor compartment and was filled with the drug solution. Sink conditions were maintained in all experiments, meaning the drug concentration in the acceptor compartment never exceeded 10% of its concentration in the donor compartment at any time according the recommendations proposed in [18].
Samples from the acceptor compartment after permeation through the PDS membrane were analyzed by HPLC using a Shimadzu Prominence LC-20 AD system(Shimadzu Corporation, Kyoto, Japan) equipped with a PDA detector and a Luna® C-18 column (150 × 4.6 mm i.d., 5 μm particle size, 100 Å pore size). The column temperature was maintained at 40 °C. The mobile phase consisted of acetonitrile and water (containing 0.1% trifluoroacetic acid) in a 20:80 (v/v) ratio. An isocratic elution was performed at a flow rate of 1.0 mL·min^−1. The injection volume was 20 μL. The analytes were detected by UV at 373 nm, with a retention time of approximately 4.5 min. […]

[2] = Equilibrium distribution coefficients in organic solvent/pH 7.4 systems, shake-flask method; type: physicochemical; conditions: for logD / logD at 24 h: read-out: log DappOctOH/pH7.4 (logD) (converted); for DappHex/pH7.4 ·10^2: value given as D×10^2
Protocol: The equilibrium distribution coefficients of HML were determined in the OctOH/pH 7.4 and Hex/pH 7.4 systems by the shake-flask method over a wide temperature range of 293.15–313.15 K. The distribution coefficient in the IPM/pH 7.4 system was obtained at 310.15 K. Before the experiment, the aqueous and organic phases were mutually pre-saturated by vigorous shaking for 24 h, equilibrated, and then carefully separated. The stock HML solutions were prepared in OctOH for the OctOH/pH 7.4 system and in pH 7.4 for both the Hex/pH 7.4 and IPM/pH 7.4 systems. The volumes of the organic and aqueous phases were selected according to the HML solubility in each solvent. The glass vials containing the two-phase system were equilibrated at constant temperature for 24 h. After this, the vials were allowed to stand for not less than 4 h, and the phases were carefully separated. The concentration of HML in each phase was measured using a UV-VIS spectrophotometer (Cary-50 Varian, Palo Alto, CA, USA; Software Version 3.00 (339)). Each experiment was carried out in three or more replicates. The standard deviation ranged from 2% to 4% of the mean. The distribution coefficients were calculated by Equation (1):(1) DappOrg/pH7.4=C2Org/pH7.4⋅V^pH7.4/Org/C2pH7.4/Org⋅V^Org/pH7.4 where DappOrg/pH7.4 is the distribution coefficient calculated using the compound concentrations in molar units, C2Org/pH7.4 and C2pH7.4/Org are the molar concentrations of the drug in the mutually saturated organic and aqueous phases, respectively, V^pH7.4/Org and V^Org/pH7.4 are the volumes of the mutually saturated buffer and organic phases, respectively. The ΔlogD parameters that characterize the drug’s hydrogen-bonding potential and reflect the impact of specific interactions on partition processes were calculated as follows:(2) ΔlogD^Oct/Hex=logDappOct/pH7.4−logDappHex/pH7.4 (3) ΔlogD^IPM/Hex=logDappIPM/pH7.4−logDappHex/pH7.4

[3] = Kinetics of distribution in OctOH/pH 7.4 and IPM/pH 7.4 (1-5 h); type: physicochemical
Protocol: Distribution coefficients were measured at 1, 2, 3, 4, and 5 h in OctOH/pH 7.4 and IPM/pH 7.4 at 310.15 K to assess the kinetics of HML distribution.

[4] = Permeability in Franz diffusion cell, PermeaPad barrier; type: in vitro ADME
Protocol: as §1, §2

For `COc1ccc2c3c([nH]c2c1)C(C)=NCC3` [HML, Harmaline], the logPapp ([1]; PDS membrane) was −6.78, the “steady state flux J” value ([1]; PDS membrane, C0 2.62 × 10^−3 M) was 4.31 × 10^−7 µmol∙cm^−2∙s^−1 and the Papp at 5 h ([1]; PDS membrane, read-out: permeability coefficient Papp) was 0.165 ×10⁻⁶ cm/s. For the same molecule, the “permeability coefficient for PDS, fold lower than for RC” value [1] was 299 fold, the logD ([2]; 1-octanol (OctOH)/buffer pH 7.4, pH 7.4, OctOH/pH 7.4, 310.15 K) was 1.29 and the logD ([2]; 1-octanol (OctOH)/buffer pH 7.4, pH 7.4, OctOH/pH 7.4, 313.15 K) was 1.34. The “decrease of distribution coefficient from OctOH/pH 7.4 to IPM/pH 7.4 system” value ([2]; 310.15 K) was 78 fold, the “DappHex/pH7.4 ·10^2” value ([2]; Hex/pH 7.4, 293.15 K) was 1.178 ± 0.024 and the “DappHex/pH7.4 ·10^2” value ([2]; Hex/pH 7.4, 303.15 K) was 1.470 ± 0.037. The “DappHex/pH7.4 ·10^2” value ([2]; Hex/pH 7.4, 308.15 K) was 1.718 ± 0.035, the DappHex/pH7.4 ([2]; Hex/pH 7.4, 310.15 K, unscaled value in text) was 0.022 and the “DappHex/pH7.4 ·10^2” value ([2]; Hex/pH 7.4, 310.15 K) was 2.197 ± 0.044. The “DappHex/pH7.4 ·10^2” value ([2]; Hex/pH 7.4, 313.15 K) was 2.483 ± 0.050, the DappIPM/pH7.4 ([2]; IPM/pH 7.4, 310.15 K) was 0.25 and 0.250 ± 0.010 and the logD at 24 h ([2]; OctOH (octanol)/buffer pH 7.4, pH 7.4, OctOH/pH 7.4, 293.15 K) was 0.973. The logD at 24 h ([2]; OctOH (octanol)/buffer pH 7.4, pH 7.4, OctOH/pH 7.4, 298.15 K) was 1.02, the logD at 24 h ([2]; OctOH (octanol)/buffer pH 7.4, pH 7.4, OctOH/pH 7.4, 303.15 K) was 1.07 and the logD at 24 h ([2]; OctOH (octanol)/buffer pH 7.4, pH 7.4, OctOH/pH 7.4, 308.15 K) was 1.17. For the same molecule, the DappOctOH/pH7.4 ([2]; OctOH/pH 7.4, 293.15 K) was 9.399 ± 0.101, the DappOctOH/pH7.4 ([2]; OctOH/pH 7.4, 298.15 K) was 10.376 ± 0.208 and the DappOctOH/pH7.4 ([2]; OctOH/pH 7.4, 303.15 K) was 11.653 ± 0.233. The DappOctOH/pH7.4 ([2]; OctOH/pH 7.4, 308.15 K) was 14.632 ± 0.293, the DappOctOH/pH7.4 ([2]; OctOH/pH 7.4, 310.15 K) was 19.492 and 19.49 and 19.492 ± 0.389 and the DappOctOH/pH7.4 ([2]; OctOH/pH 7.4, 313.15 K) was 22.138 ± 0.443. The “fold-change between saturation and 5 h distribution coefficients” value ([3]; IPM/pH 7.4, 310.15 K) was 1.36 fold, the “increase of distribution from 1 to 5 h” value ([3]; IPM/pH 7.4, 310.15 K) was 1.3 fold and the “fold-change between saturation and 5 h distribution coefficients” value ([3]; OctOH/pH 7.4, 310.15 K) was 1.38 fold. The “increase of distribution from 1 to 5 h” value ([3]; OctOH/pH 7.4, 310.15 K) was 1.2 fold, the “log partition 1-octanol / buffer pH 7.4” value (shake-flask; pH 7.4, 293.15) was 0.973 log10 and the “log partition n-hexane / buffer pH 7.4” value (shake-flask; pH 7.4, 293.15) was −1.929 log10. For the same molecule, the “log partition 1-octanol / buffer pH 7.4” value (shake-flask; pH 7.4, 298.15) was 1.016 log10, the “log partition n-hexane / buffer pH 7.4” value (shake-flask; pH 7.4, 298.15) was −1.899 log10 and the “log partition 1-octanol / buffer pH 7.4” value (shake-flask; pH 7.4, 303.15) was 1.066 log10. The “log partition n-hexane / buffer pH 7.4” value (shake-flask; pH 7.4, 303.15) was −1.833 log10, the “log partition 1-octanol / buffer pH 7.4” value (shake-flask; pH 7.4, 308.15) was 1.165 log10 and the “log partition n-hexane / buffer pH 7.4” value (shake-flask; pH 7.4, 308.15) was −1.765 log10. For the same molecule, the “log partition 1-octanol / buffer pH 7.4” value (shake-flask; pH 7.4, 310.15) was 1.290 log10, the “log partition isopropyl myristate / buffer pH 7.4” value (shake-flask; pH 7.4, 310.15) was −0.602 log10 and the “log partition n-hexane / buffer pH 7.4” value (shake-flask; pH 7.4, 310.15) was −1.658 log10. The “log partition 1-octanol / buffer pH 7.4” value (shake-flask; pH 7.4, 313.15) was 1.345 log10, the “log partition n-hexane / buffer pH 7.4” value (shake-flask; pH 7.4, 313.15) was −1.605 log10 and the logPapp ([4]; PP barrier, pH 7.4, 310.15 K) was −4.43. The “steady state flux J” value ([4]; PP barrier, pH 7.4, 310.15 K, C0 2.23 × 10^−3 M) was 8.28 × 10^−5 µmol∙cm^−2∙s^−1, the Papp at 5 h ([4]; PP barrier, pH 7.4, 310.15 K, read-out: permeability coefficient Papp) was 37.1 ×10⁻⁶ cm/s and the “permeability classification (Di Cagno et al.)” value ([4]; PP barrier, high permeability if Papp > 2.04∙10^−5 cm∙s^−1) was “highly permeable; also recorded: high permeated substance”. For the same molecule, the “permeability coefficient for PP, fold lower than for RC” value ([4]; pH 7.4, 310.15 K) was 1.3 fold.

— paper PMC12844998, “Bridging the Knowledge Gap in Harmaline’s Pharmacological Properties: A Focus on Thermodynamics and Kinetics” (Pharmaceutics, 2025)
